The target in series [1] is Cathepsin B (Homo sapiens, UniProt P07858).
Description: Inhibition of human recombinant Cathepsin B using fluorogenic peptide substrate
Series [2] deals with Procathepsin L (Homo sapiens, UniProt P07711).
Description: Inhibition of human recombinant Cathepsin L using fluorogenic peptide substrate
Series [3] deals with T1, Cathepsin K (Homo sapiens, UniProt P43235).
T1 sequence (P43235 whole entry): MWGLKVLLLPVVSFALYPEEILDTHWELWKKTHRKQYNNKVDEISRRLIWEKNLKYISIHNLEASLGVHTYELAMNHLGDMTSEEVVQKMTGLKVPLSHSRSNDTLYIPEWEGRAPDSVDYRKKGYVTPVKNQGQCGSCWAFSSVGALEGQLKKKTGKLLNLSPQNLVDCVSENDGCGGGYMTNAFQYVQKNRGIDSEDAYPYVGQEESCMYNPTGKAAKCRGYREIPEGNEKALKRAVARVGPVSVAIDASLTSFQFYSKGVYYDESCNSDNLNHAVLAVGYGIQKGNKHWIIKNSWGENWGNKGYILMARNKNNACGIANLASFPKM
Description: Inhibition of human recombinant Cathepsin K using fluorogenic peptide substrate

Series [4] addresses Cathepsin S (Homo sapiens, UniProt P25774).
Description: Inhibition of human recombinant Cathepsin S using fluorogenic peptide substrate
For series [5], the target named is Dipeptidyl peptidase 1 (Homo sapiens, UniProt P53634).
Chain of Dipeptidyl peptidase 1 (P53634 25-134 limits assumed): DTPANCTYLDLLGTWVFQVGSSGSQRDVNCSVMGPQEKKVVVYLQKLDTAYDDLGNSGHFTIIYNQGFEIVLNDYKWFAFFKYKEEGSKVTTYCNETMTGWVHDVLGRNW
Chain of Dipeptidyl peptidase 1 (P53634 231-394 limits assumed): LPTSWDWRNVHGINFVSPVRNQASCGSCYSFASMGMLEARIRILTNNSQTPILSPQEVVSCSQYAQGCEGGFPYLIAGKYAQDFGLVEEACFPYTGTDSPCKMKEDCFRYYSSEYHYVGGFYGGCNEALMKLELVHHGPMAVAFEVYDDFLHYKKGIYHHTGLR
Chain of Dipeptidyl peptidase 1 (P53634 395-463 limits assumed): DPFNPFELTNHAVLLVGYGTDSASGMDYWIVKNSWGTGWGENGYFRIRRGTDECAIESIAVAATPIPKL
Description: Inhibition of human recombinant Cathepsin C using fluorogenic peptide substrate
Series [6] is described as follows: Permeability of the compound by PAMPA. It is filed as ADME.
Series [7] deals with adenain (human adenovirus serotype 8). The series can be described thus: Inhibition of human adenovirus serotype 8 adenain protease expressed in Escherichia coli […] (DE3) using Ac-WLRGG*ARC(PT14)-NH2 as substrate by FLT assay.
Series [8] concerns adenain (human adenovirus serotype 5). The series can be described thus: Inhibition of human adenovirus serotype 5 adenain protease expressed in Escherichia coli […] (DE3) using Ac-WLRGG*ARC(PT14)-NH2 as substrate by FLT assay.
Series [9] can be described thus: Equilibrium solubility of the compound at pH 6.8. It is filed as physicochemical. The note with it: buffer.
The test system of series [10] is Human adenovirus 5. The experiment in a line: Antiviral activity against human adenovirus 5 infected in HEK293 cells assessed as reduction in viral induced cytopathogenicity incubated for 5 days by Celltiter-Glo luminescent cell viability assay. It is filed as functional, organism-based. Conditions: Human mastadenovirus C, HEK293, 120 h.

This note sets out measurements from ChEMBL document CHEMBL3352786, “Structure-based design and optimization of potent inhibitors of the adenoviral protease” (Bioorg Med Chem Lett, 2015).

As usually defined, the IC50 is the point on the concentration scale where inhibition reaches its midpoint. Lower therefore signals greater potency. The term solubility (thermodynamic) denotes solubility found after equilibrating the solid with the medium. As a reminder, the EC50 is the concentration needed to bring the measured effect to its halfway point.

Values after ≈ are worked out from the molar mass of the structure shown. A value given as a limit tells only on which side of the number the result lay.

Chain of Procathepsin L (P07711 whole entry): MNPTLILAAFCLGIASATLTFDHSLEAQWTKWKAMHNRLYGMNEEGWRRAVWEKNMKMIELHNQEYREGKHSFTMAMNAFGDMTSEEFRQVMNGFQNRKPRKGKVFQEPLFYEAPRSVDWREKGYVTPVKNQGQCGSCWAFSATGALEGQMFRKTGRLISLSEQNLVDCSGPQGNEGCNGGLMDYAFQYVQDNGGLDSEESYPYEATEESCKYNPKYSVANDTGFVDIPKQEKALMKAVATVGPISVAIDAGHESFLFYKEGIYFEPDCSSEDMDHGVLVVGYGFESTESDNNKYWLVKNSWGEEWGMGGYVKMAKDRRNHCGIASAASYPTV
Chain of Cathepsin S (P25774 whole entry): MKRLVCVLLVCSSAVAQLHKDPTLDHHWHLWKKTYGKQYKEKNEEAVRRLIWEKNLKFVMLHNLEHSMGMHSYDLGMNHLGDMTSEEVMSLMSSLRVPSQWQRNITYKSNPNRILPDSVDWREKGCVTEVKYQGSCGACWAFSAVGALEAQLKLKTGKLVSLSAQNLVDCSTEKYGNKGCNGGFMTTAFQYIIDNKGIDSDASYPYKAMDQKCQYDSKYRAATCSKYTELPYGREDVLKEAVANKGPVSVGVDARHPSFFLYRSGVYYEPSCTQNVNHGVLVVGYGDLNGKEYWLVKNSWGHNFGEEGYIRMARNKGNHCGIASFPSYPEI

For `COc1ccc(C(=O)NCC(=O)NC/C=C/S(C)(=O)=O)cc1C(=O)C(C)(C)c1cc(Cl)cc(Cl)c1`, the IC50 in series [1] was over 100 µM; in [2], over 100 µM; in series [3], over 100 µM; in [4] it was over 100 µM; in series [5], over 100 µM; in series [7] it was 0.001 µM. In [8], inhibition was half-maximal at 0.001 µM (IC50). The logPm in [6] is reported as -4.1.
`CN(C)CCOc1ccc(C(=O)NCC(=O)NCC#N)cc1C(=O)C(C)(C)c1cc(Cl)cc(Cl)c1`: the IC50 is over 100 µM in series [1]; 100 µM in [2]; over 100 µM in [3]; over 100 µM in series [4]; over 100 µM in series [5]; 0.01 µM in series [7]. This compound also had an IC50 in series [8] of 0.007 µM. The compound further gave a logPm in [6] of -5.5. In addition, the solubility (thermodynamic) in series [9] is over 1000 µM.
For `CC[C@H](C(=O)N[C@H]1CCN(CC(=O)NC/C=C/S(C)(=O)=O)C1=O)c1cc(Cl)cc(Cl)c1`, the IC50 in series [1] is over 100 µM; in series [2] it was over 100 µM; in series [3], over 100 µM; in series [4], over 100 µM; in [5] it was over 100 µM; in [7] it was 0.004 µM. In addition, in series [8], the IC50 was determined as 0.002 µM. For the same compound, the EC50 in [10] was determined as 8.9 µM. In series [6], this compound yielded a logPm of -5.5.
Regarding `CCN[C@H](C(=O)N[C@H](C(=O)NCC(=O)NC/C=C/S(C)(=O)=O)C(C)(C)C)c1cc(Cl)cc(Cl)c1`, the IC50 is over 100 µM in series [1]; over 100 µM in [2]; 73 µM in [3]; over 100 µM in series [4]; over 100 µM in series [5]; under 0.001 µM in [7]. The IC50 in [8] is under 0.001 µM. Besides, the EC50 in [10] was found to be 31 µM.
Consider `COc1ccc(C(=O)NCc2ccnc(C#N)n2)cc1C(=O)C(C)(C)c1cc(Cl)cc(Cl)c1`, for which the IC50 stood at 8.1 µM in series [1]; 5.6 µM in series [2]; 9.5 µM in [3]; 1 µM in series [4]; 66 µM in [5]; 0.0006 µM in series [7]. The same compound yielded an IC50 in series [8] of 0.0002 µM. In addition, the EC50 in series [10] was over 50 µM.
On to `COc1ccc(C(=O)NCC(=O)NCC#N)cc1C(=O)Cc1cc(Cl)cc(Cl)c1`, for which the IC50 in [7] was 2.74 µM; in series [8] it was 1.1 µM.
Regarding `COc1ccc(C(=O)NCC(=O)NCC#N)cc1C(=O)C(C)(C)c1cc(Cl)cc(Cl)c1`, the IC50 in series [1] is over 100 µM; in [2] it was over 100 µM; in series [3], over 100 µM; in series [4], over 100 µM; in [5], over 100 µM; in series [7], 0.04 µM. This compound also registered an IC50 in [8] of 0.03 µM. The logPm in series [6] was -5. The same compound registered a solubility (thermodynamic) in series [9] of 50 µM (≈ 23.1 µg/mL).
`CN(C)CCOc1ccc(C(=O)NCc2ccnc(C#N)n2)cc1C(=O)C(C)(C)c1cc(Cl)cc(Cl)c1`: the IC50 in series [1] was 81 µM; in [2] it was over 11 µM; in series [3], 19 µM; in series [4], 24 µM; in series [5], 18 µM; in series [7] it was 0.0001 µM. Moreover, half-maximal inhibition in [8] (IC50) was put at 0.0001 µM. Besides, the EC50 in series [10] is 3.9 µM. The compound further displayed a logPm in series [6] of -4.2. Also, in [9], the solubility (thermodynamic) stood at 490 µM (≈ 265 µg/mL).
Regarding `COc1ccc(C(=O)NCC(=O)NCC#N)cc1C(=O)C(C)c1cc(Cl)cc(Cl)c1` (configuration not stated), the IC50 in series [7] is 0.95 µM; in series [8], 0.31 µM.
Regarding `CC(C)(C)[C@H](NC(=O)Cc1cc(Cl)cc(Cl)c1)C(=O)NCC(=O)NC/C=C/S(C)(=O)=O`, the half-inhibitory concentration (IC50) in series [1] was over 100 µM; in [2] it was over 100 µM; in series [3], 95 µM; in [4] it was over 100 µM; in series [5] it was over 100 µM; in [7], 0.01 µM. Further, the IC50 in series [8] was determined as 0.01 µM. Moreover, the EC50 in series [10] turned out to be 4.5 µM. Besides, the logPm in [6] is listed as -5.6.
Turning to `CS(=O)(=O)N[C@H](C(=O)N[C@@H](Cc1ccccc1)C(=O)NCC(=O)NCC#N)c1cccc(Cl)c1`, the logPm in [6] is on record as -5.6. In addition, the IC50 is 0.04 µM in series [7] and 0.03 µM in [8].
